In patent publication US20260285847A1, “SYMMETRIC AMINOINDOLE-LINKED TRIAZINE FOR A DUAL EFFECT ON ALPHA-SYNUCLEIN AND TAU ISOFORM 2N4R FIBRILLIZATION” (Purdue Research Foundation, priority 2023, published 2026):
Entries after “also recorded” stand apart in the source; their conditions may differ.

What was measured:
[1] = tested on: M17D-TR/αS3K::YFP neuroblastoma cells; experiment: α-syn inclusion formation in dox-inducible neuroblastoma cells; type: cell-based
Protocol: (§1) The dox-inducible neuroblastoma cell line M17D-TR/αS3K::YFP was used to evaluate the effect of compounds in preventing the formation of inclusion following induction with Dox. Dox-inducible neuroblastoma cells M17D-TR/αS-3K::YFP have been used previously. 96-well plates were used with cellular density of 30,000 cells per well. Compounds were added after 24 h and aS-3K::YFP transgene expression was induced […]. Induction was done by adding 1 μg per mL (final concentration) dox to culture media. Cells were incubated in the Incucyte Zoom 2000 platform (Essen Biosciences) and images (green, bright field) were taken continuously. Endpoint analysis of inclusion formation or growth was performed 48 h after induction (96 h after plating). The Incucyte processing definition ‘Inclusions’ was created as follows: Parameters, Fixed Threshold, Threshold (GCU) 50; Edge Split On, Edge Sensitivity 100; Cleanup, Hole Fill (μm^2): 10, Adjust Size (pixels): 0; Filters, Area (μm^2): max 50, Mean Intensity: min 60, Integrated Intensity: min 2000. […] As described previously for the evaluation of protein expression by SDS-PAGE and Western Blotting in the LiCor system, αS-specific monoclonal antibody 4B12 (Thermofisher, Waltham, MA; 1:1000) and a polyclonal antibody to GAPDH (Sigma-Aldrich, St. Louis, MO, G9545; 1:5000) were used.

[2] = as above; type: cell-based; settings: human, m17d neuroblastoma cells; read-out: concentration from which a small level of toxicity is seen (cell confluence)
Protocol: as §1

tau isoform 2N4R [3] = target: T1, tau isoform 2N4R (Homo sapiens, UniProt P10636); experiment: ThT fluorescence assay of tau isoform 2N4R fibril formation; type: biochemical; settings: compound 100 μM, tau 2N4R 6 μM
T1 construct: made in house; host or cells: E. coli BL21(DE3)
T1 sequence (P10636 1-441 isoform P10636-8): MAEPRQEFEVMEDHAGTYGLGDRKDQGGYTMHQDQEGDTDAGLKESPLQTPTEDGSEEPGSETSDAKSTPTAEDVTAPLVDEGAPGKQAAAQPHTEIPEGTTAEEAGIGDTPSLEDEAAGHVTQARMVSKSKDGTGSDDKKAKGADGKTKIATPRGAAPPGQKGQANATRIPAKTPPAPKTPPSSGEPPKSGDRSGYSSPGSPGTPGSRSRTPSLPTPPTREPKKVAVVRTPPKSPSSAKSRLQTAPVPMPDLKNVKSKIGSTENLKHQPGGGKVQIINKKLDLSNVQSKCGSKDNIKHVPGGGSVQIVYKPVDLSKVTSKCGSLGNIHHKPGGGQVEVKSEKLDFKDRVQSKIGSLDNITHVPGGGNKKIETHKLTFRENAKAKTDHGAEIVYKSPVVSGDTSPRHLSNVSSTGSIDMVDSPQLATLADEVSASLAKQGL
Protocol: (§2) Chemical and peptide source. DMSO and thioflavin-T (ThT) were purchased from Alfa Aesar (Ward Hill, MA). Procuration of recombinant α-syn was from rPeptide (WatKinsville, GA). The recombinant p-tau isoform 1N4R was prepared as published previously.^31, 36 Concerning the preparation of tau 2N4R, bacterial expression plasmid consisting of the vector pRK172 carrying a cDNA encoding the human Tau 2N4R isoform was a kind gift of Dr. David Eliezer (Weill Cornell Medicine). For protein expression, E. coli BL21(DE3) cells were transformed with the plasmid and grown in LB media supplemented with ampicillin (100 μg/mL). Protein over-expression was induced by the addition of 1 mM IPTG for 4 h at 37° C., and cells were pelleted by centrifugation at 6,000 g for 15 min at 4° C. The cells were resuspended in lysis buffer (20 mM MES, 400 mM NaCl, 0.2 mM MgCl2, 1 mM EGTA, protease inhibitor cocktail (P8340, Sigma Aldrich), 0.25 mg/mL lysozyme, and 1 μg/mL DNase I, pH 6.8) and lysed by a French press cell disruptor at 4° C., and the lysate was boiled for 20 min. Denatured proteins were pelleted by centrifugation at 30,000 g for 30 min at 4° C., and the supernatant was dialyzed overnight against cation exchange buffer (20 mM MES, 50 mM NaCl, 1 mM MgCl2, 1 mM EGTA, 2 mM DTT, 0.1 mM PMSF, pH 6.8). The dialysate was loaded onto a HiPrep SP HP column, and proteins were eluted with a linear gradient ranging from 50 mM to 1 M NaCl. Fractions containing tau isoform 2N4R were pooled, and the resulting protein solution was dialyzed against PBS (pH 7.4) and stored at −80° C.

tau isoform 2N4R [4] = target: T1, tau isoform 2N4R; experiment: TEM of tau isoform 2N4R fibrils; type: biochemical; settings: protein 60 μM, compound 600 μM (1:10), 24 hours at 37° C.
Protocol: as §2
To confirm the general anti-fibrillar effect of compound 10, transmission electron microscopy (TEM) was used as an orthogonal assay. After incubating recombinant proteins (at 60 μM) with 600 μM compound 10 for 24 hours at 37° C., TEM was utilized to detect fibril formation.^32 A volume of 10 μL was applied on a 400-mesh Formvar-carbon-coated copper grid (Electron Microscopy Sciences, Hatfield, PA). The grids were incubated for 1 minute and washed three times with distilled water. […]

α-syn = target: T2, α-syn (Homo sapiens, UniProt P37840); experiment: PICUP cross-linking assay of α-syn oligomer formation; type: biochemical
T2 construct: purchased rPeptide
Protocol: PICUP is a technique in which oligomer formation is induced by cross-linking. To induce oligomerization by cross-linking, α-syn (from Rpeptide, LLC) and tau isoform 2N4R were diluted in 10 mM phosphate buffer (pH 7.4) to reach a final concentration of 10 μM. Different compounds were added to the protein solution at a final concentration of 50 μM, resulting in a molar ratio of 1:5. To confirm the gradual effect of compounds on the inhibition of α-syn oligomerization, compounds were tested at final concentration of 3.125, 6.25, 12.5, 25, and 50 μM. The controls consisted of samples without light exposition, without Ru(bpy) or ammonium persulfate, and without compound (i.e., 0.125% DMSO). The cross-linking reaction was initiated by the addition of 2 μL of Ru(bpy) (300 μM final concentration) and 2 μL ammonium persulfate (6 mM final concentration).^32 Samples were irradiated immediately. Light exposure was of a 1 second duration for α-syn and a 3 second duration for tau isoform 2N4R, with a 53 W (120 V) incandescent lamp installed in a homemade dark-box. Each tube contained a final volume of 20 μL. After irradiation, 8.3 μL of Laemmli loading buffer containing 15% 0-mercaptoethanol was immediately added to the solution, followed by incubation at 95° C. for 10 min. The cross-linked samples were separated on a 16% SDS-PAGE gel and visualized by Coomassie blue staining.

c1cc(Nc2ncnc(Nc3cccc4[nH]ccc34)n2)c2cc[nH]c2c1 [Compound 10, N2,N4-bis(1H-indol-4-yl)-1,3,5-triazine-2,4-diamine]
minimal effective concentration ([1]; Neuroblastoma cell, read-out: concentration from which α-syn inclusion body formation is reduced): ≥ 2.5 µM
α-syn expression levels (Western blot) ([1]; compound 10 μM): reduced
toxicity (cell confluence, in words) ([1]; compound 40 μM): more intense toxicity
α-syn inclusion formation (punctate YFP signal, in words) ([1]; compound 7: 2.5 to 20 μM, compound 10: 2.5 to 40 μM, readout 96 h after plating, vs 0.1% DMSO): reduced α-syn inclusion formation
MCC [2]: ≥ 10 µM
elongation rate of tau isoform 2N4R fibrillization (tau isoform 2N4R [3]): slower elongation rate
tau isoform 2N4R fibrillization (in words) (tau isoform 2N4R [3]; heparin 1.5 μM): markedly inhibited tau isoform 2N4R fibrillization
tau isoform 2N4R fibril ultrastructure (TEM) (tau isoform 2N4R [4]): needle-shaped short fibrils; also recorded: very short needle shaped fibrils admixed with debris
α-syn oligomer formation (PICUP, in words) (α-syn; compound 50 μM, high molecular weight oligomers around 50 kDa): inhibited both α-syn and tau oligomer formation
α-syn oligomerization at different concentrations (PICUP) (α-syn; compound 3.125 to 50 μM): effective in reducing oligomerization of α-syn and tau isoform 2N4R in a dose-dependent manner
